# Data from paper PMC8000760, “Potential Effect of Pseudevernia furfuracea (L.) Zopf Extract and Metabolite Physodic Acid on Tumour Microenvironment Modulation in MCF-10A Cells” (Biomolecules, 2021).
# Columns and labels:
# [1] = system: endothelial tube formation; conditions: cited from earlier work
# MCF-10A cells = test: Flow cytometry cell cycle phase distribution; format: cell-based, human; conditions: treatment alone (IC10 of PSE/Phy, or TGF-β 30 ng/mL)
# Procedure: The MCF-10A and BJ-5ta cells were seeded and cultivated for 24 h in a complete medium. One day after seeding, 30 ng/mL of TGF-β was added and cultivated for 7 days (d). TGF-β was added to induce epithelial–mesenchymal transition in tested cell lines. Lichen extract P. furfuracea (L.) Zopf and its metabolite physodic acid were added at time 0 h and then incubated for 24, 48 and 72 h for various analyses, as described in Figure 1.
# The MCF-10A cells (1 × 10^4/well) were seeded in Petri dishes and stimulated with […] TGF-β for 7 days. […] After detaching, using Trypsin/EDTA, cells were harvested and pelleted by centrifugation at 1200 rpm for 5 min. Pellet was re-suspended in PBS and divided for a particular analysis. Cells were stained prior to analyses with E-Cadherin Mouse mAb (Alexa Fluor 488 conjugate) or N-cadherin Rabbit mAb (Alexa Fluor 647 conjugate) (Cell Signalling) for 15 min at RT in the dark. For the cell cycle analyses, cells were re-suspended in staining solution (final concentration 0.1% Triton X-100, 0.5 mg/mL ribonuclease A and 0.025 mg/mL propidium iodide (PI)), and incubated in the dark at RT for 30 min. All samples were analysed using a FACS Calibur flow cytometer (Becton Dickinson, San Jose, CA, USA). The IgG isotype control checking was performed for every used antibody.
# [2] = system: N-cadherin, Snail, Twist, E-cadherin; design: method as in PMID 26371759; conditions: cited from earlier work
# HUVEC = system: HUVEC; design: method as in PMID 22669534; conditions: cited from earlier work
# EMT process = conditions: through decreasing the mRNA level of E-cadherin; cited from earlier work
# angiogenesis in vivo = system: angiogenesis in vivo; design: method as in PMID 22669534; conditions: chorioallantoic membrane assay and corneal angiogenesis assay; cited from earlier work
compound,measurement,setting,value
COC(=O)/C(=C1/OC(=O)C(c2ccccc2)=C1O)c1ccccc1 [vulpinic acid],anti-angiogenic activity by inhibiting endothelial tube formation,[1],strong anti-angiogenic activity
CCCCCC(=O)Cc1cc(O)cc(O)c1C(=O)Oc1cc(O)c(C(=O)O)c(CCCCC)c1 [olivetoric acid],endothelial tube formation,[1],inhibiting
TGF-β,G1 cell cycle phase distribution,MCF-10A cells; 24 h,74.55 ± 1.59
same,G2/M cell cycle phase distribution,MCF-10A cells; 24 h,13.25 ± 2.49
same,S cell cycle phase distribution,MCF-10A cells; 24 h,11.15 ± 0.69
same,Sub G0 cell cycle phase distribution,MCF-10A cells; 24 h,1.07 ± 0.22
same,G1 cell cycle phase distribution,MCF-10A cells; 48 h,83.05 ± 2.74
same,G2/M cell cycle phase distribution,MCF-10A cells; 48 h,8.63 ± 1.69
same,S cell cycle phase distribution,MCF-10A cells; 48 h,7.39 ± 0.88
same,Sub G0 cell cycle phase distribution,MCF-10A cells; 48 h,0.94 ± 0.16
same,G1 cell cycle phase distribution,MCF-10A cells; 72 h,81.35 ± 0.37
same,G2/M cell cycle phase distribution,MCF-10A cells; 72 h,10.85 ± 0.45
same,S cell cycle phase distribution,MCF-10A cells; 72 h,6.61 ± 0.74
same,Sub G0 cell cycle phase distribution,MCF-10A cells; 72 h,1.22 ± 0.07
COC(=O)c1c(C)c2c(c(C)c1O)OC(=O)c1c(C)c(Cl)c(O)c(C=O)c1O2 [physciosporin],changes in E-cadherin levels,[2],not observed
same,"level of EMT-associated proteins N-cadherin, Snail and Twist",[2],decrease
CC(=O)c1c(O)c(C)c(O)c2c1OC1=CC(=O)C(C(C)=O)C(=O)C12C (stereo not drawn) [(+)- usnic acid],VEGF-induced HUVEC migration and tube formation,HUVEC,inhibits
CC(=O)c1c(O)c(C)c(O)c2c1OC1=CC(=O)C(C(C)=O)C(=O)C12C (centres unmarked) [usnic acid],anti-angiogenic activity by inhibiting endothelial tube formation,[1],strong anti-angiogenic activity
same,effect on the EMT process,EMT process,inhibitory effect
same,angiogenesis in vivo,angiogenesis in vivo,inhibits
